Experimental data taken from patent publication US8188008B2, “Herbicidally and insecticidally active 4-phenyl-substituted pyridazinones” (Bayer Cropscience AG, priority 2008, dated 2012).

Test system: green peach aphid (Myzus persicae)
Assay: Myzus test (MYZUPE spray treatment)
Format: in vivo
Details: spray treatment of Chinese cabbage discs, application rate 500 g/ha; 100% = all aphids killed
Description: Myzus Test (MYZUPE Spray Treatment) [table] To produce a suitable preparation of active compound, 1 part by weight of active compound is mixed with the stated amounts of solvents and emulsifier, and the concentrate is diluted with emulsifier-containing water to the desired concentration. Discs of Chinese cabbage (Brassica pekinensis) which are infested by all stages of the green peach aphid (Myzus persicae) are sprayed with an active compound preparation of the desired concentration. After the desired period of time, the effect in % is determined. 100% means that all aphids have been killed; 0% means that none of the aphids have been killed.

Cn1ncc(O)c(-c2ccc(Cl)c(Cl)c2)c1=O [I-1-a-4]
effect in % (aphids killed): at least 80%
